The numbers were not newly measured in patent US20220354953A1, “PHOTODYNAMIC THERAPY COMPOSITIONS AND METHODS OF TREATMENT THEREIN” (Pinnacle Biologics, Inc., priority 2021, published 2022), which cites them from elsewhere.

Turning to porfimer sodium, the “time stable when reconstituted with saline” value is 24 h.
